Laboratory results from US10221198B2, “Preparation and medical use of triazenes” (Ecole Polytechnique Federale De Lausanne (EPFL), priority 2014, dated 2019).

What was measured:
Type in all cases: cell-based
[1] = system: non-cancer human embryonic kidney cells (HEK293); assay: Cytotoxicity test (MTT assay) on HEK293 cells; settings: 72 h exposure
Description: (§1) MDA-MB-231 breast adenocarcinoma cells (ATCC® HTB-26™), MCF-10a human mammary epithelial cells (ATCC® CRL-10317™) and HEK293 human embryonic kidney cells (ATCC® CRL-1573™) were obtained from ATCC (Middlesex, UK), the A2780 human ovarian carcinoma cell line was obtained from the European Collection of Cell Cultures (catalogue number 93112519, Salisbury, U.K.). All cell culture media were purchased from Life Technologies (Zug, Switzerland). A2780 cells were cultured in RPMI-1640 medium (Gibco, GlutaMax), while MDA-MB-231 and HEK293 cells were cultured in Dulbecco's Modified Eagle Medium (DMEM, Gibco, GlutaMax) supplemented with 10% fetal bovine serum (FBS, Sigma-Aldrich, Buchs, Switzerland) and 1% penicillin/streptomycin (Life Technologies, Zug, Switzerland). MCF-10A were cultured in DMEM/F12 medium containing 10% horse serum and 1% antibiotics, supplemented with 10 μg/mL insulin, 20 μg/mL hydrocortisone, 20 ng/mL epidermal growth factor and 100 ng/mL cholera toxin (all from Sigma Aldrich, Buchs, Switzerland). Cells were incubated in a CO2 incubator with 5% CO2 and 100% relative humidity at 37° C. MTT (MTT=3-(4,5-dimethyl-2-thiazolyl)-2,5-diphenyl-2H-tetrazolium bromide) was purchased from Calbiochem (Zug, Switzerland). Cell viability was determined by the MTT assay. The absorption was read using a SpectraMax M52 microplate reader (Molecular Devices, Sunnyvale, Calif., USA).
(§2) Cells were seeded in 96-well plates as monolayers with 100 μL of cell suspension (approximately 5000 cells) per well and preincubated for 24 h in medium supplemented with 10% FBS. With the exception of dacarbazine, all compounds were dissolved in DMSO. In the case of dacarbazine, an aqueous stock solution of the monocitrate was prepared in situ and immediately used (light sensitivity). The stock solutions were serially diluted in the culture medium to the appropriate concentration, to give a final DMSO concentration of no higher than 0.5%. 100 μL of the compound solution was added to each well, and the plates were incubated for 72 h. Subsequently, MTT (5 mg/mL solution) was added to the cells and the plates were incubated for a further 2 h. The culture medium was aspirated and the purple formazan crystals formed by the mitochondrial dehydrogenase activity of vital cells were dissolved in DMSO. The optical density, directly proportional to the number of surviving cells, was quantified at 590 nm using a multiwell plate reader, and the fraction of surviving cells was calculated from the absorbance of untreated control cells. Evaluation is based on means from at least two independent experiments, each comprising triplicates per concentration level.

[2] = system: human mammary epithelial cells (MCF-10A); assay: Cytotoxicity test (MTT assay) on MCF-10A cells; settings: 72 h exposure
Description: as §1, §2

[3] = system: human invasive breast cancer cells (MDA-MB-231); assay: Cytotoxicity test (MTT assay) on MDA-MB-231 cells; settings: for IC50: MDA-MB-231, 72 h exposure, MTT assay, human invasive breast cancer cells; for SC, selectivity coefficient, IC50 MCF-10A/IC50 MDA-MB-231: ratio of 72 h IC50 values, MCF-10A over MDA-MB-231
Description: as §1, §2

[4] = system: human ovarian cancer cells (A2780); assay: Cytotoxicity test (MTT assay) on A2780 cells; settings: 72 h exposure
Description: as §1, §2

For `CC(C)N(N=NC#Cc1ccccc1)C(C)C` [Compound 1, 3,3-Diisopropyl-1-(phenylethynyl)triaz-1-ene], the IC50 [1] was 44 ± 11 µM, the IC50 [2] was 116 ± 2 µM and the IC50 [3] was over 500 µM. For the same compound, the IC50 [4] was 56 ± 4 µM.

`CC(C)N(N=NC#CC(C)(C)C)C(C)C` [Compound 2, 1-(3,3-Dimethylbut-1-ynyl)-3,3-diisopropyltriaz-1-ene] showed an IC50 [1] of 125 ± 5 µM, an IC50 [2] of 299 ± 43 µM and an IC50 [3] of 176 ± 60 µM. The “SC, selectivity coefficient, IC50 MCF-10A/IC50 MDA-MB-231” value (shortened to “SC, selectivity coefficient”) [3] was 1.7 and the IC50 [4] was 160 ± 40 µM.

In the case of `CC(C)N(C)N=NC#CC(C)(C)C` [Compound 4, 1-(3,3-Dimethylbut-1-ynyl)-3-isopropyl-3-methyltriaz-1-ene], the IC50 [1] is reported as 29 ± 4 µM, the IC50 [2] is reported as 192 ± 12 µM and the IC50 [3] is reported as 70 ± 10 µM. The “SC, selectivity coefficient” value [3] was 2.7 and the IC50 [4] was 32 ± 4 µM.

`CN(C)N=NC#CC(C)(C)C` [Compound 5, 1-(3,3-Dimethylbut-1-ynyl)-3,3-dimethyltriaz-1-ene] gave an IC50 [1] of 19 ± 2 µM, an IC50 [2] of 52 ± 11 µM and an IC50 [3] of 38 ± 3 µM. For the same compound, the “SC, selectivity coefficient” value [3] was 1.4 and the IC50 [4] was 22 ± 3 µM.

`CCCCC#CN=NN(C(C)C)C(C)C` [Compound 6, 1-(Hex-1-ynyl)-3,3-diisopropyltriaz-1-ene] gave an IC50 [1] of 165 ± 65 µM, an IC50 [2] of 254 ± 52 µM and an IC50 [3] of 199 ± 21 µM. The “SC, selectivity coefficient” value [3] was 1.2 and the IC50 [4] was 143 ± 29 µM.

For `COCC#CN=NN(C)C(C)C` [Compound 9, 3-Isopropyl-1-(3-methoxyprop-1-ynyl)-3-methyltriaz-1-ene], the IC50 [1] was 14 ± 1 µM, the IC50 [2] was 208 ± 49 µM and the IC50 [3] was 32 ± 4 µM. The “SC, selectivity coefficient” value [3] was 6.5 and the IC50 [4] was 20 ± 3 µM.

Work on `CC(C)N(C)N=NC#CCN(C)C` [Compound 10, 3-(3-Isopropyl-3-methyltriaz-1-enyl)-N,N-dimethylprop-2-yn-1-amine] yielded an IC50 [1] of 21 ± 5 µM, an IC50 [2] of 86 ± 4 µM and an IC50 [3] of 14 ± 2 µM. The “SC, selectivity coefficient” value [3] was 6.1 and the IC50 [4] was 34 ± 4 µM.

`COCC#CN=NN(C)C` [Compound 14, 1-(3-Methoxyprop-1-ynyl)-3,3-dimethyltriaz-1-ene] showed an IC50 [1] of 24 ± 4 µM, an IC50 [2] of 177 ± 23 µM and an IC50 [3] of 72 ± 9 µM. For the same compound, the “SC, selectivity coefficient” value [3] was 2.5 and the IC50 [4] was 43 ± 6 µM.

`CN(C)CC#CN=NN(C)C` [Compound 15, 3-(3,3-Dimethyltriaz-1-enyl)-N,N-dimethylprop-2-yn-1-amine] was tested, and the IC50 [1] was 15 ± 4 µM, the IC50 [2] was 113 ± 7 µM and the IC50 [3] was 45 ± 15 µM. The “SC, selectivity coefficient” value [3] was 2.4 and the IC50 [4] was 47 ± 3 µM.
